Assay results reported in patent publication US20250367235A1, “SYSTEMS AND METHODS FOR MODULATING A CELL PHENOTYPE” (XCELL BIOSCIENCES, INC., priority 2019, published 2025).

Tested on: PC-3, a prostate cancer cell line
Test: PBMC tumor cell killing co-culture with anti-PD-1 antibodies, cell viability by CellTiter Glo
Assay type: cell-based, human
Settings: 1% O2, 2 PSI above ambient pressure vs ambient conditions; antibody 10 ug/ml; PBMCs with PC-3 at effector to target ratio 20:1; 5 days; average of 21 PBMC isolates; FIG. 2
Procedure: PBMCs were isolated from 21 healthy volunteers. The PBMCs were cultured together with target tumor cells, (PC-3, a prostate cancer cell line), at an effector to target ratio of 20:1. All cells were cultured in RPMI1640 medium supplemented with 10% fetal bovine serum over a 5 day period. PBMCs were not activated with IL-2. Cell viability was measured at the end of the 5 day period by CellTiter Glo Assay (Promega) with 3 or 4 technical replicates. Each of the 21 PBMC isolates, and target cells, was cultured under either ambient conditions, or hypoxic and hyperbaric conditions (1% O2, 2 PSI above ambient pressure), and with or without anti-PD-1 antibodies. The anti-PD-1 antibodies used were Nivolumab and Pembrolizumab (10 ug/ml). Average results across the 21 different PBMC isolates are shown in FIG. 2, with error bars representing the standard error of the mean, and p values were calculated using paired Student's t tests.

Substance | effect of hypoxic and hyperbaric conditions on efficacy of treatment at activating PBMCs to kill tumor cells
Pembrolizumab | more efficient at activating PBMCs to kill tumor cells
Nivolumab | did not have a noticeable effect
